Assay: Examination of stability in DMSO (HPLC purity)
Assay type: physicochemical
Conditions: 20 mg/mL in DMSO
Protocol: The compound A, the compound B, or the comparative example was dissolved in DMSO at a content of 20 mg/mL, allowed to stand at room temperature or −20° C. for a predetermined time, and analyzed by HPLC.
For the compound A, the compound B, and the comparative example, the ratio of the area of the main peak to the sum of the areas of all peaks (HPLC purity) is shown in Table 1.

SMILES: [N-]=[N+]=NCCCCC1NONC(C(N)=O)CCCCC(NCCCC(=O)C(Cc2ccccc2)NC(=O)CCCC(=O)ON2C(=O)CCC2=O)C(=O)N1 (stereo not shown) [Comparative example, DSG-αZ34C, reference compound]
- HPLC purity (ratio of the area of the main peak to the sum of the areas of all peaks) (room temperature, 0 Hours): 85%
- HPLC purity (ratio of the area of the main peak to the sum of the areas of all peaks) (room temperature, 22 Hours): 83%
- HPLC purity (ratio of the area of the main peak to the sum of the areas of all peaks) (−20° C., 0 Days): 92%
- HPLC purity (ratio of the area of the main peak to the sum of the areas of all peaks) (−20° C., 30 Days): 85%

From patent publication US20250304617A1, “COMPOUND, SALT OF COMPOUND, ANTIBODY MODIFICATION REAGENT, METHOD FOR PRODUCING MODIFIED ANTIBODY, AND MODIFIED ANTIBODY” (Kagoshima University, priority 2021, published 2025)
